Data taken from patent US6147097A, “Imidazole derivatives as anti-HIV agents” (Shionogi & Co., Ltd., priority 1994, dated 2000).
Values after ≈ are worked out from the molar mass of the structure shown. Where a name gives a salt, the structure may show the parent alone. Read-outs that look alike come from different tables or passages of the source.

Assays:
HIV (HTLV-IIIB strain) = assay: microbe, parasite or virus in culture; format: cell-based; conditions: Human immunodeficiency virus 1, IIIB, MT4, 120 h
Procedure: The anti-HIV activity of each of the compounds produced in Examples was assayed by the following procedures. […] On the other hand, the test compound was diluted with the above culture medium to predetermined concentrations and distributed in 50 μl aliquots into a 96-well microtiter plate. Then, d suspension of MT-4 cells was added in 100 μl aliquots (3.5×10^4 cells per well) and then the above HIV-containing supernatant diluted with the above culture medium was added, 50 μl (60 pfu (plaque forming units)) per well. (2) The plate was incubated in a CO2 incubator at 37° C. for 5 days. Then, 30 μl/well of 3-(4,5-dimethyl thiazol-2-yl)-2,5-diphenyltetrazolium bromide (MTT) (5 mg/ml PBS) was added and the incubation was further continued for 1 hour. The surviving cells reducing MTT yield precipitation of formazan. Therefore, 150 μl portions of the culture supernatant were removed from all wells and, instead, 150 μl of a solution (10% Triton X-100 and 0.4% (v/v) HCl-added isopropyl alcohol) was added. The plate was shaken on a plate mixer to dissolve the formazan.

[1] = cytotoxicity in MT-4 cells (MTT, culture medium in place of HIV); format: cell-based; conditions: human
Procedure: The anti-HIV activity of each of the compounds produced in Examples was assayed by the following procedures. (1) Human T cell line MOLT-4 clone 8 persistently infected by HIV (HTLV-IIIB strain) was cultured in an RPMI-1640 medium supplemented with 10% fetal calf serum, the culture supernatant was filtered, and the titer of virus was determined; the culture supernatant was stored at -80° C. On the other hand, the test compound was diluted with the above culture medium to predetermined concentrations and distributed in 50 μl aliquots into a 96-well microtiter plate. Then, d suspension of MT-4 cells was added in 100 μl aliquots (3.5×10^4 cells per well) and then the above HIV-containing supernatant diluted with the above culture medium was added, 50 μl (60 pfu (plaque forming units)) per well. (2) The plate was incubated in a CO2 incubator at 37° C. for 5 days. Then, 30 μl/well of 3-(4,5-dimethyl thiazol-2-yl)-2,5-diphenyltetrazolium bromide (MTT) (5 mg/ml PBS) was added and the incubation was further continued for 1 hour. The surviving cells reducing MTT yield precipitation of formazan. Therefore, 150 μl portions of the culture supernatant were removed from all wells and, instead, 150 μl of a solution (10% Triton X-100 and 0.4% (v/v) HCl-added isopropyl alcohol) was added. The plate was shaken on a plate mixer to dissolve the formazan. The OD of formazan was measured with a microreader at 560 nm arid 690 nm (reference wavelength) and the result was compared with that of control.
The cytotoxicity of each of the compounds produced in Examples was assayed. In place of the HIV-containing supernatant (the virus suspension) in (1) in Test Example 1, 50 μl of the culture medium was added to each well, and the cytotoxicity was determined in the same manner as that for (2) in Test Example 1.

[2] = biological target: T1, purified recombinant HIV-1 reverse transcriptase (Human immunodeficiency virus type 1 group M subtype B, UniProt P04585); assay: reverse transcriptase inhibition, poly(rA)/(dT) template primer, [3H]dTTP uptake; format: biochemical
T1 construct: purified recombinant HIV-1 reverse transcriptase; made in house; host or cells: Escherichia coli
Procedure: The reverse transcriptase activity of each of the compounds synthesized in Examples was assayed by the following procedures.
Using the purified recombinant HIV-1 reverse transcriptase RT, E.C. 2.7.7.49) obtained by expression in Escherichia Coli, a 96-well plate assay system was established for assaying a large number of samples. The RT inhibitory activity was determined as follows. To 11 μl of a solution of the test inhibitor in water or MSO was added 100 μl of a reaction mixture (0.1 unit/100 μl RT, 50 mM Tris-HCl pH 8.3, 150 mM KCl, 10 mM MgCl2, 3 mM dithiothreitol, 0.1% Nonidet P-40, 10 μg/ml. poly(rA) and 10 μg/ml (dT)12-1.8 as template and primer, and 4 μM dTTP, 1 μCi/100 μl [^3 H]dTTP as substrate) and the mixture was incubated at 37° C. for 1 hour and, then, immediately cooled on ice. Using a cell harvester, the reaction mixture was transferred to a DEAE-filter mat (LKB-Pharmacia). Then, using the wash line of the cell harvester, the cells were washed twice with 5% Na2 HPO4 /H2 O and once with water and dried at 95° C. for 15 minutes. […] The inhibitory activity was expressed in percent inhibition relative to the uptake on water or DMSO control.

[3] = MT-4 cells, 60 pfu HIV per well, 37° C., 5 days, MTT, Tables 1 and 2, read-out: EC50
[4] = MT-4 cells, no virus, 37° C., 5 days, MTT, Table 3, read-out: CC50

Compound: CC(C)c1nc(CNC(=O)C(F)(F)F)n(C)c1[S+]([O-])c1cc(Cl)cc(Cl)c1 (stereo not drawn) [Compound I-112, 5-(3,5-dichlorophenylsulfinyl)-4-isopropyl-1-methyl-2-trifluoroacetylaminomethyl-1H-imidazole]
- EC50 (HIV (HTLV-IIIB strain); [3]): > 100000 ng/mL
- CC50 at 120 h [1, 4]: > 100 µg/mL

Compound: CCCn1c(COC(N)=O)nc(C(C)C)c1Sc1cccc([N+](=O)[O-])c1 [Compound I-50, 2-carbamoyloxymethyl-4-isopropyl-5-(3-nitrophenylthio)-1-n-propyl-1H-imidazole]
- EC50 (HIV (HTLV-IIIB strain); [3]): 8 ng/mL (≈ 0.0211 µM)
- CC50 at 120 h [1, 4]: > 100 µg/mL

Compound: CC(C)c1nc(COC(N)=O)n(Cc2ccccn2)c1Sc1cc(Cl)cc(Cl)c1 [Compound I-93]
- EC50 (HIV (HTLV-IIIB strain)): 0.5 to 1 ng/mL (≈ 0.00111 to 0.00222 µM)
- CC50 at 120 h [1, 4]: 12.5 µg/mL (≈ 27.7 µM)

Compound: CC(C)c1nc(CN)n(C)c1[S+]([O-])c1cc(Cl)cc(Cl)c1 (stereo not drawn) [Compound I-110, 2-aminomethyl-5-(3,5-dichlorophenylsulfinyl)-4-isopropyl-1-methyl-1H-imidazole]
- EC50 (HIV (HTLV-IIIB strain); [3]): 10000 ng/mL (≈ 28.9 µM)
- CC50 at 120 h [1, 4]: 10 to 100 µg/mL (≈ 28.9 to 289 µM)

Compound: CC(C)c1nc(CCOC(N)=O)n(Cc2ccccc2N)c1Sc1cc(Cl)cc(Cl)c1 [Compound I-144, l-(o-aminobenzyl)-2-(2-carbamoyloxyethyl)-5-(3,5-dichlorophenylthio)-4-isopropyl-1H-imidazole]
- IC50 [2]: > 209 µM
- CC50 at 120 h ([1]; mt-4 cells): 6.3 to 12.5 µg/mL (≈ 13.1 to 26.1 µM)

Compound: CC(C)c1nc(COC(N)=O)n(Cc2ccccc2)c1Sc1cccc(Cl)c1 [Compound I-46, 1-benzyl-2-carbamoyloxymethyl-5-(3-chlorophenylthio)-4-isopropyl-1H-imidazole]
- IC50 [2]: 1.92 µM
- CC50 at 120 h [1, 4]: 12.5 to 25 µg/mL (≈ 30.1 to 60.1 µM)

Compound: CC(C)c1nc(CO)n(C)c1S(=O)(=O)c1cc(Cl)cc(Cl)c1 [Compound I-109, [5-(3,5-dichlorophenylsulfonyl)-4-isopropyl-1-methyl-1H-imidazol-2-yl]methanol]
- EC50 (HIV (HTLV-IIIB strain); [3]): 500 ng/mL (≈ 1.38 µM)
- CC50 at 120 h [1, 4]: > 100 µg/mL

Compound: CC(C)c1nc(COC(N)=O)n(Cc2ccc[nH]c2=O)c1Sc1cc(Cl)cc(Cl)c1 [Compound I-132, 2-carbamoyloxymethyl-5-(3,5-dichlorophenylthio)-1-(2-oxo-1,2-dihydro-pyridin-3-yl)methyl-4-isopropyl-1H-imidazole]
- IC50 [2]: 1.39 µM
- CC50 at 120 h ([1]; mt-4 cells): 12.5 to 25 µg/mL (≈ 26.7 to 53.5 µM)

Compound: CC(C)c1nc(CN)n(CF)c1Sc1cc(Cl)cc(Cl)c1 [Compound I-77, 2-aminomethyl-5-(3,5-dichlorophenylthio)-1-fluoromethyl-4-isopropylimidazole]
- IC50 [2]: 3.73 µM
- CC50 at 120 h [1, 4]: 10 µg/mL (≈ 28.7 µM)

Compound: CC(=O)Nc1ccc(Cn2c(CO)nc(C(C)C)c2Sc2cc(Cl)cc(Cl)c2)cc1 [Compound I-117, 1-(p-N-acetylaminobenzyl)-5-(3,5-dichlorophenylthio)-2-hydroxymethyl-4-isopropyl-1H-imidazole]
- IC50 [2]: 8.18 µM
- CC50 at 120 h ([1]; mt-4 cells): 50 µg/mL (≈ 108 µM)

Compound: CCCCCCCCCCCCn1c(CO)nc(C(C)C)c1Sc1cc(Cl)cc(Cl)c1 [Compound I-18, [5-(3,5-dichlorophenylthio)-1-dodecyl-4-isopropyl-1H-imidazol-2-yl]methanol]
- IC50 [2]: > 206 µM
- CC50 at 120 h [1, 4]: 10 to 100 µg/mL (≈ 20.6 to 206 µM)

Compound: CC(C)c1nc(CO)n(CC(=O)c2ccccc2)c1Sc1cc(Cl)cc(Cl)c1 [Compound I-31, [1-benzoylmethyl-5-(3,5-dichlorophenylthio)-4-isopropyl-1H-imidazol-2-yl]methanol]
- EC50 (HIV (HTLV-IIIB strain); [3]): 60 ng/mL (≈ 0.138 µM)
- CC50 at 120 h [1, 4]: 100 µg/mL (≈ 230 µM)

Compound: [5-(3,5-dichlorophenylthio)-1-(1-fluoroethyl)-4-isopropyl-1H-imidazol-2-yl]methanol [Compound I-35]
- RT IC50 ([2]; pH 8.3, 37° C., 1 hour, Tables 5 and 6): 0.69 µg/mL

Compound: CC(=O)NCc1nc(C(C)C)c(Sc2cc(Cl)cc(Cl)c2)n1C [Compound I-83]
- IC50 [2]: 218 µM
- CC50 at 120 h [1, 4]: 6.3 to 12.5 µg/mL (≈ 16.9 to 33.6 µM)

Compound: CC(C)c1nc(CN)n(C)c1S(=O)(=O)c1cc(Cl)cc(Cl)c1 [Compound I-111, 2-aminomethyl-5-(3,5-dichlorophenylsulfonyl)-4-isopropyl-1-methyl-1H-imidazole]
- CC50 at 120 h [1, 4]: 1 to 10 µg/mL (≈ 2.76 to 27.6 µM)

Compound: CCn1c(COC(N)=O)nc(C(C)C)c1Sc1cccc([N+](=O)[O-])c1 [Compound I-49, 2-carbamoyloxymethyl-1-ethyl-4-isopropyl-5-(3-nitrophenylthio)-1H-imidazole]
- EC50 (HIV (HTLV-IIIB strain)): 4 to 8 ng/mL (≈ 0.011 to 0.022 µM)
- CC50 at 120 h [1, 4]: 25 µg/mL (≈ 68.6 µM)

Compound: CC(C)c1nc(CO)[nH]c1S(=O)(=O)c1cc(Cl)cc(Cl)c1 [Compound I-114, [5-(3,5-dichlorophenylsulfonyl)-4-isopropyl-1H-imidazol-2-yl]methanol]
- EC50 (HIV (HTLV-IIIB strain); [3]): 10000 ng/mL (≈ 28.6 µM)
- CC50 at 120 h [1, 4]: 10 to 100 µg/mL (≈ 28.6 to 286 µM)

Compound: CC(=O)OCCOCc1nc(Sc2cc(Cl)cc(Cl)c2)c(C(C)C)n1C [Compound I-64, 2-[4-(3,5-dichlorophenylthio)-5-isopropyl-1-methyl-1H-imidazol-2-yl]methoxy} ethyl acetate]
- IC50 [2]: > 240 µM
- CC50 at 120 h [1, 4]: 12.5 to 25 µg/mL

Compound: CC(C)c1nc(CO)[nH]c1[S+]([O-])c1cc(Cl)cc(Cl)c1 (stereo not drawn) [Compound I-113, [5-(3,5-dichlorophenylsulfinyl)-4-isopropyl-1H-imidazol-2-yl]methanol]
- EC50 (HIV (HTLV-IIIB strain); [3]): 100000 ng/mL (≈ 300 µM)
- CC50 at 120 h [1, 4]: 100 µg/mL (≈ 300 µM)

Compound: CC(C)c1nc(COC(N)=O)n(C)c1[S+]([O-])c1cc(Cl)cc(Cl)c1 (stereo not drawn) [Compound I-115, 2-carbamoyloxymethyl-5-(3,5-dichlorophenylsulfinyl)-4-isopropyl-1-methyl-1H-imidazole]
- CC50 at 120 h [1, 4]: 10 to 100 µg/mL (≈ 25.6 to 256 µM)

Compound: CC(C)c1nc(COC(N)=O)n(Cc2ccncc2)c1Sc1cc(Cl)cc(Cl)c1 [I-93', 2-carbamoyloxymethyl-5-(3,5-dichlorophenylthio)-4-isopropyl-1-(pyridin-4-yl)methyl-1H-imidazole]
- EC50 (HIV (HTLV-IIIB strain)): 0.06 to 0.13 ng/mL (≈ 0.000133 to 0.000288 µM)
- CC50 at 120 h [1, 4]: 10 to 100 µg/mL (≈ 22.2 to 222 µM)

Compound: CC(C)c1nc(CO)n(Cc2cccc(N)c2)c1Sc1cc(Cl)cc(Cl)c1 [Compound I-118, 1-(m-aminobenzyl)-5-(3,5-dichlorophenylthio)-2-hydroxymethyl-4-isopropyl-1H-imidazole]
- IC50 [2]: 2.13 µM
- CC50 at 120 h ([1]; mt-4 cells): 12.5 to 25 µg/mL (≈ 29.6 to 59.2 µM)

Compound: Cc1ccc(S(=O)(=O)NCc2nc(C(C)C)c(Sc3cc(Cl)cc(Cl)c3)n2C)cc1 [Compound I-88, 5-(3,5-dichlorophenylthio)-4-isopropyl-1-methyl-2-p-toluenesulfonylaminomethyl-1H-imidazole]
- IC50 [2]: > 206 µM
- CC50 at 120 h [1, 4]: 1 to 10 µg/mL (≈ 2.06 to 20.6 µM)

Compound: CC(C)c1nc(CO)n(C)c1[S+]([O-])c1cc(Cl)cc(Cl)c1 (stereo not drawn) [Compound I-108, [5-(3,5-dichlorophenylsulfinyl)-4-isopropyl-1-methyl-1H-imidazol-2yl]methanol]
- EC50 (HIV (HTLV-IIIB strain); [3]): 1000 ng/mL (≈ 2.88 µM)
- CC50 at 120 h [1, 4]: 10 to 100 µg/mL (≈ 28.8 to 288 µM)

Compound: CC(C)c1c(Sc2cc(Cl)cc(Cl)c2)nc(COCCOC(N)=O)n1C [Compound I-65]
- IC50 [2]: > 239 µM
- CC50 at 120 h [1, 4]: 12.5 to 25 µg/mL (≈ 29.9 to 59.8 µM)

Compound: CC(C)c1nc(CO)n(Cc2ccc(C(C)(C)C)cc2)c1Sc1cc(Cl)cc(Cl)c1 [Compound I-116, 1-(p-t-butylbenzyl)-5-(3,5-dichlorophenylthio)-2-hydroxymethyl-4-isopropyl-1H-imidazole hydrochloride]
- IC50 [2]: > 200 µM
- CC50 at 120 h ([1]; mt-4 cells): 25 µg/mL

Compound: Cc1cc(C)cc(S(=O)(=O)c2c(C(C)C)nc(CO)n2C)c1 [Compound I-107, [5-(3,5-dimethylphenylsulfonyl)-4-isopropyl-1-methyl-1H-imidazol-2-yl]methanol]
- IC50 [2]: 194 µM
- CC50 at 120 h [1, 4]: > 100 µg/mL
